The subject of this assay is influenza virus A/WSN RG#1-1 strains. Nature of the assay: microbe, parasite or virus in culture. The class given is cell-based. To be noted: for IC50: unidentified influenza virus, WSN, read-out: IC50 (50% virus replication inhibitory concentration).

Where a name gives a salt, the structure may show the parent alone. Read-outs that look alike come from different tables or passages of the source.

Turning to `CN1C/C=C/CCOc2cccc(c2)-c2ccnc(n2)Nc2cccc(c2)C1` [Compound J23, 20-oxa-5,7,14,27-tetraazatetracyclo[19.3.1.12,6.18, 12]heptacosa-1(25),2,4,6(27),8,10,12(26),16,21,23-decane,14-methyl-], the IC50 was 0.0316 µM (A549, 48 h); 0.0316 µM (HEK293, 48 h); 0.0316 µM (MDCK, 48 h).

Turning to `CN1CCN(c2cccc(Nc3nc4c(-c5ccc(S(C)(=O)=O)cc5)cccn4n3)c2)CC1` [Compound J11], the “IC50 (50% virus replication inhibitory concentration)” value is listed as 3.50 log10, nM.

As to `Fc1cc(-c2cccc3ncc(-c4cnn(C5CCNCC5)c4)nc23)cc(F)c1CN1CCOCC1` [Compound J13, 8-(3,5-difluoro-4-(morpholinomethyl)phenyl)-2-(1-(piperidin-4-yl)-1H-pyrazol-4-yl)qui noxaline], the “IC50 (50% virus replication inhibitory concentration)” value was 3.17 log10, nM.

Take `N#C/C(=C\c1ccc(O)c(O)c1)C(=O)NCc1ccccc1` [Compound J4, (E)-N-benzyl-2-cyano-3-(3,4-dihydroxyphenyl)acrylamide]: the IC50 (A549, 48 h) is 31.6 µM.

Regarding `O=C(Nc1c[nH]nc1-c1nc2cc(CN3CCOCC3)ccc2[nH]1)NC1CC1` [Compound J7, 1-cyclopropyl-3-(3-(5-(morpholinomethyl)-1H-benzo[d]imidazol-2-yl)-1H-pyrazol-4-yl) urea], the IC50 (A549, 48 h) is 3.16 µM.

As for `COc1cc2ncnc(Nc3ccc(O)cc3)c2cc1OC` [Compound J20, 4-[(6,7-dimethoxy-4-quinazolinyl)amino]-phenol], where the note is “HEK293, 48 h”, the IC50 was 31.6 µM.

Regarding `N#CCNC(=O)c1ccc(-c2ccnc(Nc3ccc(N4CCOCC4)cc3)n2)cc1` [Compound J8, N-(cyanomethyl)-4-(2-(4-morpholinophenylamino)pyrimidin-4-yl)benzamide], for the setting “HEK293, 48 h”, the IC50 is 31.6 µM.

For `CCC[C@H](NC(=O)/C(C#N)=C/c1cccc(Br)n1)c1ccccc1` [Compound J25, (2E)-3-(6-bromo-2-pyridinyl)-2-cyano-N-[1S-phenylbutyl]-2-propenamide], the “IC50 (50% virus replication inhibitory concentration)” value is given as 2.50 log10, nM.

With `Cl.Cl.Fc1cc(-c2cccc3ncc(-c4cnn(C5CCNCC5)c4)nc23)cc(F)c1CN1CCOCC1` [Compound J21, 4-[[2,6-difluoro-4-[3-(1-piperidin-4-ylpyrazol-4-yl)quinoxalin-5-yl]phenyl]methyl]morpholine; dihydrochloride], the “IC50 (50% virus replication inhibitory concentration)” value is recorded as 3.50 log10, nM.

Take `CC(C)N(CCC(=O)c1ccc2ccccc2c1)Cc1ccccc1` [Compound J15, 1-propanone, 3-[(1-methylethyl)(phenylmethyl)amino]-1-(2-naphthalenyl)-, hydrochloride (1:1)]: the IC50 (HEK293, 48 h) was 0.316 µM.

As for `O=C(Nc1nc2cccc(-c3ccc(CN4CCS(=O)(=O)CC4)cc3)n2n1)C1CC1` [Compound J19, N-[5-[4-[(1,1-dioxido-4-thiomorpholinyl)methyl]phenyl][1,2,4]triazolo[1,5-a]pyridin-2-yl]cyclopropanccarboxamidc], the IC50 runs as follows: (A549, 48 h) 31.6 µM; (HEK293, 48 h) 31.6 µM; (MDCK, 48 h) 31.6 µM.
